# Experimental data as given in patent EP4800015A1, “AZABICYCLO DERIVATIVE AND PREPARATION METHOD THEREFOR, AND USE” (Zhejiang Hisun Pharmaceutical Co., Ltd., priority 2023, dated 2025).
# Tests used:
# [1] = molecular target: T1, recombinant human WRN (Homo sapiens, UniProt Q14191); assay: Inhibition of WRN enzyme activity (ATPase), ADP-Glo Kinase Assay; type: biochemical; conditions: WRN protein 5 nM, Flap 0.1 nM, ATP 30 µM; read-out: IC50
# T1 construct: purchased BPS 101264
# Outline: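 ATPase activity was measured by ADP-Glo luminescence after a 10-min room-temperature reaction with 30 µM ATP and 0.1 nM Flap26 oligonucleotide substrate. The 5 nM WRN had first been exposed to compound (0.004–1000 nM) for 15 min in pH 7.5 Tris buffer with 2 mM MgCl2. IC50 values came from log-concentration regression against the DMSO control.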
# [2] = test system: SW48 cells; assay: Inhibition of SW48 cell proliferation (CellTiter-Glo); type: cell-based; conditions: Homo sapiens; SW48 cells (MSI-H), 120 hours
# Method: (§1) The following method was used to determine the effect of the compounds of the present disclosure on SW48 cell proliferation. SW48 cells (MSI-H cells) were purchased from American ATCC cell bank and cultured in Leibovitz's L-15 medium (Gibco, catalog No. 11415064) containing 10% fetal bovine serum, 100 U penicillin, and 100 µg/mL streptomycin. Cell viability was determined by CellTiter-Glo® Luminescent Cell Viability Assay kit (Promega, catalog No. G7573).
# (§2) The experiment was performed according to the steps of the kit manual, which is briefly described as follows: test compounds were first dissolved in DMSO to prepare 10 mM stock solutions, and then diluted with medium to prepare test samples, with final compound concentrations ranging from 10000 nM to 1.52 nM. Cells in logarithmic growth phase were seeded into 96-well cell culture plates at a density of 500 cells per well and cultured overnight at 37 °C in an air incubator, then test compounds were added and cultivation continued for 120 hours. After the cultivation was completed, 40 µL of CellTiter-Glo detection reagent was added to each well, shaken for 5 minutes, and then left to stand for 10 minutes. Luminescence values of each well were read on a microplate reader using Luminescence mode. The percentage inhibition at each concentration point was calculated by comparison with the control group (0.1% DMSO), and then IC50 values for the compounds for inhibition of cell proliferation were obtained using nonlinear regression analysis of compound concentration logarithm versus inhibition rate in GraphPad Prism 9 software, as shown in Table 2.
# The IC50 value results of the compounds of the present disclosure are represented by A, wherein "A" indicates 1 nM < IC50 ≤ 100 nM. Table 2 IC50 data for inhibition of SW48 cell proliferation by the compounds of the present disclosure
# [3] = test system: RL95-2 cells; assay: Inhibition of RL95-2 cell proliferation (CellTiter-Glo); type: cell-based; conditions: Homo sapiens; RL95-2 cells (MSI-H), 120 hours
# Method: as §1, with “RL95-2” for “SW48”, “Cell Resource Center of Shanghai Institutes for Biological Sciences, Chinese Academy of Sciences,” for “American ATCC cell bank”, “DMEM/F12” for “Leibovitz's L-15”, “A4192001)” for “11415064)”
# as §2, with “a 5% CO2” for “an air”, “incubator, and” for “incubator,”, “50” for “40”, “3.” for “2.”
# The IC50 value results of the compounds of the present disclosure are represented by A, wherein "A" indicates 1 nM < IC50 ≤ 100 nM. Table 3 IC50 data for inhibition of RL95-2 cell proliferation by the compounds of the present disclosure
# T1 sequence (Q14191 whole entry): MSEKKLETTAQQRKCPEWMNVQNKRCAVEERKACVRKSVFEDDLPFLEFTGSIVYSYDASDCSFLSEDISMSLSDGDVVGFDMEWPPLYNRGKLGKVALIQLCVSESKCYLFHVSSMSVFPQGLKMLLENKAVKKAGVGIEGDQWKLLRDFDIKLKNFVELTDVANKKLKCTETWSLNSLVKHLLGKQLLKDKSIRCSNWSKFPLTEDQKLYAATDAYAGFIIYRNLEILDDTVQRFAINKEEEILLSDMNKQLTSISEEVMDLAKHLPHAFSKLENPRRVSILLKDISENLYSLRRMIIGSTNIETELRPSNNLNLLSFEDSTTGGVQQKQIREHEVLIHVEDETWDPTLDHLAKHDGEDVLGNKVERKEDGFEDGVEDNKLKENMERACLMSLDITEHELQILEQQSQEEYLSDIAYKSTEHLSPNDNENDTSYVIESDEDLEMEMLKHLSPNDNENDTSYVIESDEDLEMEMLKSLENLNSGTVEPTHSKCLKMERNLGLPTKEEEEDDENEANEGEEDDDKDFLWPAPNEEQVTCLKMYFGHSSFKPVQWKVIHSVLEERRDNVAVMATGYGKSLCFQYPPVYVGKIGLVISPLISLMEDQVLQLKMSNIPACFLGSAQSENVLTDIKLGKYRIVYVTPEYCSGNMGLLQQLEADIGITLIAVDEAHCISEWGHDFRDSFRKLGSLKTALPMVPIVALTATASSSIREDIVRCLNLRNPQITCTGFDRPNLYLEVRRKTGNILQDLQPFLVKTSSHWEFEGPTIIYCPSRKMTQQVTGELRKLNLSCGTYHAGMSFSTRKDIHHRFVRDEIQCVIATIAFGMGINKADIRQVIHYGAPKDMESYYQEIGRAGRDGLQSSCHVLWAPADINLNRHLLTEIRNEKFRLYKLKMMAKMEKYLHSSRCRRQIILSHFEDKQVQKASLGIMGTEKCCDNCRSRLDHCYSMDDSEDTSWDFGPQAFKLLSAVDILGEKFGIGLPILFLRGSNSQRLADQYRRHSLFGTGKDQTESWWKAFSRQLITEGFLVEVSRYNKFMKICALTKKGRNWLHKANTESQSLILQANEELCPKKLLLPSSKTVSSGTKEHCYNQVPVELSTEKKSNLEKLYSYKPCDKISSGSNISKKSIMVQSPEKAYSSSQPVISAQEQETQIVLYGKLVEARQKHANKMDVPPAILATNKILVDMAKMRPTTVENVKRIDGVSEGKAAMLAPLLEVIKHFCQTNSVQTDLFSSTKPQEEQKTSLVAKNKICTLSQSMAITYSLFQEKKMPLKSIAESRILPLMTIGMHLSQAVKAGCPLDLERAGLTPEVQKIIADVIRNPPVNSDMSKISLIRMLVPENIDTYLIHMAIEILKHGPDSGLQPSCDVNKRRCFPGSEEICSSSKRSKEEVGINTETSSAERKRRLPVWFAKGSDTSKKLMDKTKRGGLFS
IC50 [1],IC50 [2],Compound,IC50 [3]
1 to 100 nM,1 to 100 nM,"CCc1c(N2CCN(C(=O)c3ncnc(C)c3O)CC2)c(=O)n2nc(-c3cc4ccccc4s3)nc2n1CC(=O)Nc1ccc(S(F)(F)(F)(F)F)cc1 [Example 98, 2-(2-(benzo[b]thiophen-2-yl)-5-ethyl-6-(4-(5-hydroxy-6-methylpyrimidine-4-carbonyl)piperazin-1-yl)-7-oxo-[1,2,4]triazolo[1,5-a]pyrimidin-4(7H)-yl)-N-(4-(pentafluoro-λ^6-sulfaneyl)phenyl)acet amide]",1 to 100 nM
1 to 100 nM,1 to 100 nM,"CCc1c(N2CCN(C(=O)c3ncnc(C)c3O)CC2)c(=O)n2nc(-c3ccc4nn(C)cc4c3)nc2n1CC(=O)Nc1ccc(C(F)(F)F)cc1Cl [Example 99, N-(2-Chloro-4-(trifluoromethyl)phenyl)-2-(5-ethyl-6-(4-(5-hydroxy-6-methylpyrimidine-4-carbonyl)piperazin-1-yl)-2-(2-methyl-2H-indazol-5-yl)-7-oxo-[1,2,4]triazolo[1,5-a]pyrimidin-4(7H)-yl)acetamide]",1 to 100 nM
< 1 nM,1 to 100 nM,"CCc1c(N2CCN(C(=O)c3ncnc(C)c3O)CC2)c(=O)n2nc(-c3cnc4[nH]ccc4c3)nc2n1CC(=O)Nc1ccc(C(F)(F)F)cc1Cl [Example 101, N-(2-chloro-4-(trifluoromethyl)phenyl)-2-(5-ethyl-6-(4-(5-hydroxy-6-methylpyrimidine-4-carbonyl)piperazin-1-yl)-7-oxo-2-(1H-pyrrolo[2,3-b]pyridin-5-yl)-[1,2,4]triazolo[1,5-a]pyrimidin-4(7H) -yl)acetamide]",1 to 100 nM
1 to 100 nM,1 to 100 nM,"CCc1c(N2CCN(C(=O)c3ncnc(C)c3O)CC2)c(=O)n2nc(-c3ccc4[nH]ccc4c3)nc2n1CC(=O)Nc1ccc(C(F)(F)F)cc1Cl [Example 102, N-(2-chloro-4-(trifluoromethyl)phenyl)-2-(5-ethyl-6-(4-(5-hydroxy-6-methylpyrimidine-4-carbonyl)piperazin-1-yl)-2-(1H-indol-5-yl)-7-oxo-[1,2,4]triazolo[1,5-a]pyrimidin-4(7H)-yl)acetamide]",1 to 100 nM
1 to 100 nM,1 to 100 nM,"CCc1c(N2CCN(C(=O)c3ncnc(C)c3O)CC2)c(=O)n2nc(-c3ccc4n[nH]cc4c3)nc2n1CC(=O)Nc1ccc(C(F)(F)F)cc1Cl [Example 112, N-(2-chloro-4-(trifluoromethyl)phenyl)-2-(5-ethyl-6-(4-(5-hydroxy-6-methylpyrimidine-4-carbonyl)piperazin-1-yl)-2-(1H-indazol-5-yl)-7-oxo-[1,2,4]triazolo[1,5-a]pyrimidin-4(7H)-yl)acetamide]",1 to 100 nM
1 to 100 nM,1 to 100 nM,"CCc1c(N2CCN(C(=O)c3ncnc(C)c3O)CC2)c(=O)n2nc(-c3ccc4c(cnn4C)c3)nc2n1CC(=O)Nc1ccc(C(F)(F)F)cc1Cl [Example 113, N-(2-chloro-4-(trifluoromethyl)phenyl)-2-(5-ethyl-6-(4-(5-hydroxy-6-methylpyrimidine-4-carbonyl)piperazin-1-yl)-2-(1-methyl-1H-indazol-5-yl)-7-oxo-[1,2,4]triazolo[1,5-a]pyrimidin-4(7H)-yl) acetamide]",1 to 100 nM
1 to 100 nM,1 to 100 nM,"CCc1c(N2CCN(C(=O)c3ncnc(C)c3O)CC2)c(=O)n2nc(C3=CC4CCC3C4)nc2n1CC(=O)Nc1ccc(S(F)(F)(F)(F)F)cc1 (stereo not drawn) [Example 118, 2-(2-(bicyclo[2.2.1]hept-2-en-2-yl)-5-ethyl-6-(4-(5-hydroxy-6-methylpyrimidine-4-carbonyl)piperazin-1-yl)-7-oxo-[1,2,4]triazolo[1,5-a]pyrimidin-4(7H)-yl)-N-(4-(pentafluoro-λ^6-sulfaneyl)phenyl)acetamide]",1 to 100 nM
1 to 100 nM,1 to 100 nM,"CCc1c(N2CCN(C(=O)c3ncnc(C)c3O)CC2)c(=O)n2nc(C3=CCC4(CC3)CC4)nc2n1CC(=O)Nc1ccc(S(F)(F)(F)(F)F)cc1 [Example 120, 2-(5-ethyl-6-(4-(5-hydroxy-6-methylpyrimidine-4-carbonyl)piperazin-1-yl)-7-oxo-2-(spiro[2.5]oct-5-en-6-yl)-[1,2,4]triazolo[1,5-a]pyrimidin-4(7H)-yl)-N-(4-(pentafluoro-λ6-sulfaneyl)phenyl)ace tamide]",1 to 100 nM
1 to 100 nM,1 to 100 nM,"CCc1c(N2CCN(C(=O)c3ncccc3O)CC2)c(=O)n2nc(C3=CC4CC(O)CC4C3)nc2n1CC(=O)Nc1ccc(C(F)(F)F)cc1Cl (stereo not drawn) [Example 121, N-(2-chloro-4-(trifluoromethyl)phenyl)-2-(5-ethyl-2-(5-hydroxy-1,3a,4,5,6,6a-hexahydropentalen-2-yl)-6-(4-(3-hydroxypicolinoyl)piperazin-1-yl)-7-oxo-[1,2,4]triazolo[1,5-a]pyrimidin-4(7H)-yl) acetamide]",1 to 100 nM
1 to 100 nM,1 to 100 nM,"CCc1c(N2CCN(C(=O)c3ncnc(C)c3O)CC2)c(=O)n2nc(-c3ccc4cc[nH]c4c3)nc2n1CC(=O)Nc1ccc(C(F)(F)F)cc1Cl [Example 123, N-(2-chloro-4-(trifluoromethyl)phenyl)-2-(5-ethyl-6-(4-(5-hydroxy-6-methylpyrimidine-4-carbonyl)piperazin-1-yl)-2-(1H-indo1-6-yl)-7-oxo-[1,2,4]triazolo[1,5-a]pyrimidin-4(7H)-yl)acetamide]",1 to 100 nM
1 to 100 nM,1 to 100 nM,"CCc1c(N2CCN(C(=O)c3ncnc(C)c3O)CC2)c(=O)n2nc(-c3ccc4nccn4c3)nc2n1CC(=O)Nc1ccc(C(F)(F)F)cc1Cl [Example 126, N-(2-chloro-4-(trifluoromethyl)phenyl)-2-(5-ethyl-6-(4-(5-hydroxy-6-methylpyrimidine-4-carbonyl)piperazin-1-yl)-2-(imidazo[1,2-a]pyridin-6-yl)-7-oxo-[1,2,4]triazolo[1,5-a]pyrimidin-4(7H)-yl)acetamide]",1 to 100 nM
1 to 100 nM,1 to 100 nM,"CCc1c(N2CCN(C(=O)c3ncnc(C)c3O)CC2)c(=O)n2nc(-c3ccc4c(c3)COC4)nc2n1CC(=O)Nc1ccc(C(F)(F)F)cc1Cl [Example 129, N-(2-chloro-4-(trifluoromethyl)phenyl)-2-(2-(1,3-dihydroisobenzofuran-5-yl)-5-ethyl-6-(4-(5-hydroxy-6-methylpyrimidine-4-carbonyl)piperazin-1-yl)-7-oxo-[1,2,4]triazolo[1,5-a]pyrimidin-4(7 H)-yl)acetamide]",1 to 100 nM
1 to 100 nM,1 to 100 nM,"CCc1c(N2CCN(C(=O)c3ncnc(C)c3O)CC2)c(=O)n2nc(-c3ccc4c(c3)CCCO4)nc2n1CC(=O)Nc1ccc(C(F)(F)F)cc1Cl [Example 130, N-(2-chloro-4-(trifluoromethyl)phenyl)-2-(2-(chroman-6-yl)-5-ethyl-6-(4-(5-hydroxy-6-methylpyrimidine-4-carbonyl)piperazin-1-yl)-7-oxo-[1,2,4]triazolo[1,5-a]pyrimidin-4(7H)-yl)acetamide]",1 to 100 nM
